Experimental data published in US8343964B2, “Indolic derivatives, their preparation processes and their uses in particular as antibacterials” (Universite Joseph Fourier, priority 2007, dated 2013).
Converted amounts (≈) assume the structure as drawn. Like-named read-outs stand apart in the source and are kept apart here.

Key:
[1] = test system: Staphylococcus aureus (ATCC 25923, sensitive Gram-positive strain); assay: Determination of the antibacterial activity: MIC in liquid Mueller-Hinton medium (intrinsic antibacterial activity); assay type: cell-based; settings: read-out: MIC / Antibacterial Activity (AA)
Procedure: (§1) The two strains used are Staphylococcus aureus (ATCC 25923, sensitive Gram-positive strain) denoted S, and S. aureus ITS-1199 (without efflux), as well as its derivative S. aureus ITS-1199B (Kaatz, G. W., Seo, S. M., Antimicrob. Agents Chemother., 1995, 39, 2650-2655) having a resistance to the fluoroquinolones due to the overexpression of the efflux pump NorA and denoted R NorA. The bacteria are cultured at 37° C. in Mueller-Hinton (MH, Bio Rad) or Luria-Bertani (LB, Difco) Medium.
The experiments described hereafter are carried out following the recommendations of the Comité de l'Antibiogramme de la Société Française de Microbiologic (http://www.sfm.asso.fr/nouv/general.php See also Courvalin, P., Goldstein, F., Philippon, A., Sirot J. L'antibiogramme, 1985, M.P.C.-Videom editor). The antibacterial activity of the molecules was determined in liquid medium using a Biomek 2000 robot (Beckman) and micro-titration plates. The final volume in each well is 200 μl. A maximum volume of 5 μl of a solution of the molecule in DMSO is added to each well containing 10^6 CFU/ml (Colony Forming Units) of bacteria in MH medium. The final concentration of the molecule to be tested must be 100 or 128 μg/ml. […] Ampicillin is used as a positive control and the same volume of DMSO as that used to introduce the molecule (generally 2 to 5 μl) as a negative control.
The experiments are repeated three times.

[2] = test system: S. aureus ITS-1199B (overexpression of the efflux pump NorA); assay type: cell-based, Staphylococcus aureus; settings: resistant strain R NorA; for MIC (μg/ml) of compound in the presence of ciprofloxacin at 4 μg/ml (c/4): ciprofloxacin 4 μg/ml (c/4); for MIC (μg/ml) of compound in the presence of ciprofloxacin at 8 μg/ml (c/2): ciprofloxacin 8 μg/ml (c/2)
Procedure: as §1
The experiences are carried out as above, but using the resistant strain, and looking at the effect of the mixture of the molecule to be tested and the antibiotic to which the bacterium is resistant. Thus, the method of a series of dilutions in Mueller-Hinton medium is used, also starting from a molecule concentration of 100 or 128 μg/ml.

[3] = In vitro cytotoxicity on Vero cells; assay type: cell-based; settings: monkey, concentration of 10^−5 M, read-out: Average cytotoxicity (% inhibition), Vero cells
Procedure: (§2) The in vitro cytotoxicity results, measured at a concentration of 10^−5 M, are described below. The cytotoxicity was measured on 5 cell lines—KB (human mouth carcinoma), MCF7 (breast carcinoma) and MCF7R (resistant strain), Vero (monkey kidney) and HCT116 (human colon tumour).

[4] = test system: KB (human mouth carcinoma); assay: In vitro cytotoxicity on KB cells; assay type: cell-based; settings: concentration of 10^−5 M
Procedure: as §2

[5] = In vitro cytotoxicity on HCT116 cells; assay type: cell-based; settings: human, concentration of 10^−5 M, read-out: Average cytotoxicity (% inhibition), HCT116 cells
Procedure: as §2

[6] = In vitro cytotoxicity on MCF7 cells; assay type: cell-based; settings: human, MCF7 cells (breast carcinoma); concentration of 10^−5 M; read-out: Average cytotoxicity (% inhibition), MCF7 cells
Procedure: as §2

[7] = in vitro; assay type: cell-based; settings: human
Procedure: as §2

[8] = ATCC25923, compound alone, lowest concentration allowing no growth after 18 hours at 37° C., 10^6 CFU/ml
[9] = HCT116 cells (human colon tumour)

Work on `CC(C)(C)OC(=O)NCC(N)c1c[nH]c2cc(Br)ccc12` (stereo not shown) [(26)] yielded an MIC ([1]; ATCC25923, 18 h) of 25 µg/mL (≈ 70.6 µM).
With `O=C(CONC(=O)OCC1c2ccccc2-c2ccccc21)NC(COCc1ccccc1)c1c[nH]c2ccccc12` (stereo not shown) [Compound (48)] the “MIC (μg/ml) of compound in the presence of ciprofloxacin at 4 μg/ml (c/4)” value (from here on “MIC (μg/ml) of compound in the presence … (c/4)”) [2] was 2 µg/mL.
For `CC(C)(C)OC(=O)NCC(c1c[nH]c2ccc(Cl)cc12)N(O)C(=O)OC(C)(C)C` (stereo not shown) [Compound (12)], the MIC [1, 8] was 12.5 µg/mL (≈ 29.3 µM) and the “MIC (μg/ml) of compound in the presence … (c/4)” value [2] was 4 µg/mL.
In the case of `CC(C)(C)OC(=O)NCC(c1c[nH]c2ccc(Br)cc12)[N+]([O-])=Cc1ccccc1` (stereo not shown) [(20 bis)], the “MIC (μg/ml) of compound in the presence … (c/4)” value [2] is reported as 1 µg/mL and the “MIC (μg/ml) of compound in the presence of ciprofloxacin at 8 μg/ml (c/2)” value (from here on “MIC (μg/ml) of compound in the presence … (c/2)”) [2] is reported as 1 µg/mL.
`CC(C)(C)OC(=O)NCC(c1c[nH]c2ccc(Br)cc12)N(O)C(=O)OC(C)(C)C` (stereo not shown) [Compound (13), 1-[N-(tert-butoxycarbonyl)-N-(hydroxy)amino]-2-[N-(tert-butoxycarbonyl)]-1-(5′-bromo-3′-indolyl)ethane] gave an MIC ([1]; ATCC25923, 18 h) of 50 µg/mL (≈ 106 µM).
Molecule `COc1ccc2c(C(CNC(=O)OC(C)(C)C)N(O)Cc3ccccc3)c[nH]c2c1` (stereo not shown) [Compound (50), 1-[N-benzyl-N-(hydroxy)amino]-2-[N′-(tert-butoxycarbonyl)amino]-1-(6′-methoxyindol-3′-yl)ethane] has a cytotoxicity ([3]; Vero cells (monkey kidney)) of 42%.
`O=[N+]([O-])c1ccc(C(c2c[nH]c3ccccc23)N(O)Cc2ccccc2)cc1` (stereo not shown) [(42)] gave an MIC ([1]; ATCC25923, 18 h) of 50 µg/mL (≈ 134 µM).
With `COc1ccc2[nH]cc(C(C)N(O)Cc3ccccc3)c2c1` (stereo not shown) [(38)] the “MIC (μg/ml) of compound in the presence … (c/2)” value [2] was greater than 8 µg/mL, the “Average cytotoxicity (% inhibition), KB cells” value [4] was 0% and the cytotoxicity ([3]; Vero cells (monkey kidney)) was 5%. It also gave a cytotoxicity [5, 9] of 15%.
With `CC(C)(C)OC(=O)NCC(c1c[nH]c2ccccc12)N(O)Cc1ccccc1` (stereo not shown) [Compound (6)] the “MIC (μg/ml) of compound in the presence … (c/4)” value [2] was 4 µg/mL, the “MIC (μg/ml) of compound in the presence … (c/2)” value [2] was 2 µg/mL and the “Average cytotoxicity (% inhibition), KB cells” value [4] was 33.7%. The cytotoxicity [6] was 13.1%, the cytotoxicity [7] was 16% and the cytotoxicity ([3]; Vero cells (monkey kidney)) was 27%. It also gave a cytotoxicity [5, 9] of 29%.
For `COc1ccc(CN(O)C(CC(C)C)c2c[nH]c3ccccc23)c(OC)c1` (stereo not shown) [(40)], the “MIC (μg/ml) of compound in the presence … (c/2)” value [2] was greater than 8 µg/mL, the “Average cytotoxicity (% inhibition), KB cells” value [4] was 13% and the cytotoxicity ([3]; Vero cells (monkey kidney)) was 32%. It also gave a cytotoxicity [5, 9] of 46%.
Molecule `CC(NCc1ccccc1)c1c[nH]c2ccc(Br)cc12` (stereo not shown) [Compound (15)] has an MIC ([1]; ATCC25923, 18 h) of 25 µg/mL (≈ 75.9 µM).
With `Cl.Cl.NCC(N)c1c[nH]c2ccc(Br)cc12` (stereo not shown) [(27), 1,2-diamino-1-(5′-bromo-3′-indolyl)ethane dihydrochloride] the MIC [1, 8] was 25 µg/mL, the “Average cytotoxicity (% inhibition), KB cells” value [4] was 0% and the cytotoxicity [3] was 14%. The cytotoxicity [5] was 26%.
For `Cl.Cl.NCC(NO)c1c[nH]c2ccc(Br)cc12` (stereo not shown) [(32), 1-(N-hydroxy)-1,2-diamino-1-(5′-bromo-3′-indolyl)ethane dihydrochloride], the MIC [1, 8] was 3 µg/mL, the “Average cytotoxicity (% inhibition), KB cells” value [4] was 23% and the cytotoxicity [3] was 20%.
`CC(c1c[nH]c2cc(Br)ccc12)N(O)Cc1ccccc1` (stereo not shown) [Compound (2)] showed an MIC ([1]; ATCC25923, 18 h) of 100 µg/mL (≈ 290 µM).
Molecule `CC(C)(C)OC(=O)NCC(c1c[nH]c2ccc(Br)cc12)N(O)Cc1ccccc1` (stereo not shown) [Compound (4)] has an MIC ([1]; ATCC25923, 18 h) of 25 µg/mL (≈ 54.3 µM).
With `CC(C)(C)OC(=O)NCC(c1c[nH]c2ccc(Br)cc12)/[N+]([O-])=C/c1ccccc1` (stereo not shown) [Compound (20 bis), N-(benzylidene)-2-[N′-(tert-butoxycarbonyl)amino]-1-(5′-bromo-3′-indolyl) ethanamine N-oxide] the “MIC (μg/ml) of compound in the presence … (c/4)” value [2] was “c/2 = 1 c/4 = 1 μg/ml”, the “MIC (μg/ml) of compound in the presence … (c/2)” value [2] was “c/2 = 1 c/4 = 1 μg/ml” and the “Average cytotoxicity (% inhibition), KB cells” value [4] was 38.3%. For the same molecule, the cytotoxicity [6] was 23.3% and the cytotoxicity [7] was 38.1%.
`NCC(N)c1c[nH]c2cc(Br)ccc12` (stereo not shown) [(28)] gave an MIC [1, 8] of 25 µg/mL (≈ 98.4 µM).
For `CC(C)(C)OC(=O)NCC(NO)c1c[nH]c2ccccc12` (stereo not shown) [(46), 1-N-(hydroxy)amino-2-[N′-(tert-butoxycarbonyl)amino]-1-(indol-3′-yl)ethane], the “Average cytotoxicity (% inhibition), KB cells” value [4] was 31%, the cytotoxicity ([3]; Vero cells (monkey kidney)) was 0% and the cytotoxicity [5, 9] was 39%.
